Measurements taken from PMC12467033, “Exploring the Inhibitory Potential of Six Porphyrin Compounds Against α-Amylase and α-Glucosidase Linked to Diabetes” (Biomolecules, 2025).
“And” between values parts separate entries of the source, which are not always exact repeats. Equal entries are not always repeated. Where two headings read alike, the source gives them in different places.

Experiments:
α-amylase [1] = biological target: T1, α-amylase (Sus scrofa, UniProt P00690); experiment: FTIR secondary structure analysis of α-AMY complexes; conditions: enzyme–porphyrin molar ratio 1:2, amide I band
T1 sequence (P00690 16-511): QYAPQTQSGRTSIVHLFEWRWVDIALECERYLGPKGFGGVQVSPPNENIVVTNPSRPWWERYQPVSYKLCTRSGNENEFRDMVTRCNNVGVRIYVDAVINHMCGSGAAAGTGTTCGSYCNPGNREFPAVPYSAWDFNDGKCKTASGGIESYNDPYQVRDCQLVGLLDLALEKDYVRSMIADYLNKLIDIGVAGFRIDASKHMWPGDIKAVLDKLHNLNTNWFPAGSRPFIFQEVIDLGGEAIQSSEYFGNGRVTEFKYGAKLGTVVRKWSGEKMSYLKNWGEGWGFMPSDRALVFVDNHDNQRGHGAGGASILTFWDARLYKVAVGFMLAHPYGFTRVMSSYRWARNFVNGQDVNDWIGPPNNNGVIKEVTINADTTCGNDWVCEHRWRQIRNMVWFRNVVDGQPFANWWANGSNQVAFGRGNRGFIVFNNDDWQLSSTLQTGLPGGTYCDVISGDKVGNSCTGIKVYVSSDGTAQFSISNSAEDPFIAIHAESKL
Excerpt: A molar ratio of 1:2 (α-amylase/α-glucosidase)–porphyrin solution was placed in a cryocentrifugal concentrator and the dried solid sample was mixed with dry KBr and measured using a Nicolet IS-50 FTIR Spectrometer (ThermoFisher, Waltham, MA, USA) with a scanning range of 4000–400 cm^−1 and a resolution of 4 cm^−1. The overlapping peaks in the amide I band (1700–1600 cm^−1) were further analyzed into multiple feature sub-peaks, and quantitative analysis of the relative content of various secondary structures in proteins using curve fitting methods was performed.

α-amylase [2] = biological target: T1, α-amylase; experiment: Fluorescence quenching, binding and thermodynamics with α-amylase
Excerpt: In the α-amylase experiment, a series of porphyrins and amylase (200 U/L) were mixed in a volume ratio of 1:1.
The Stern–Volmer equation [35] was adopted to determine the quenching mechanisms between six porphyrin compounds and both enzymes in the experimental group, with Formula (6):(6) F0/F=1+Ksv[Q]=1+Kqτ0[Q]
The Stern–Volmer equation was adapted based on experimental data to more accurately characterize the quenching behavior [36], with Formula (7):(7) F0/F=e^Ksv[Q]=e^Kqτ0[Q]
In the formula, the fluorescence quenching ratio was calculated as F0/F, where F0 corresponds to the emission intensity of pure α-amylase solution (control) and F denotes the intensity measured after the incremental addition of porphyrin ligands. KSV and Kq denote the Stern–Volmer quenching constant and the bimolecular quenching rate constant, respectively, τ0 (10^−8 s) is the average fluorescence lifetime of the fluorophore in the absence of quencher, and [Q] indicates the concentration of porphyrin compounds.
Due to the presence of an internal filtration effect, a decrease in the fluorescence intensity of the system may occur. Therefore, all fluorescence data were corrected using Formula (8) to eliminate the internal filtration effect.(8) Fcor=Fobse^(Aex+Aem)/2
The evaluation of the interaction forces between porphyrin compounds and the two enzymes can be achieved by calculating thermodynamic parameters. When both ΔH^0 and ΔS^0 are positive, the predominant interaction force is hydrophobic. When both ΔH^0 and ΔS^0 are negative, the main forces are hydrogen bonding and van der Waals forces. When ΔH^0 < 0 and ΔS^0 > 0, the primary interaction is electrostatic attraction.
The thermodynamic parameters were calculated using Formulas (9) and (10), and then the Van’t Hoff plot for the interactions between the porphyrin compounds and the two enzymes was generated by plotting lnKa on the Y-axis versus 1/T on the X-axis.(9) lnKa=−ΔH^0/RT+ΔS^0/R (10) ΔG^0=ΔH^0−TΔS^0=−RTlnKa

α-glucosidase = α-glucosidase (Saccharomyces cerevisiae, UniProt P53341); type: biochemical
Excerpt: (§1) In the experiment, the concentration of the fixed substrate Gal-G2-α-CNP/pNPG solution was 5 mmol/L, and the concentrations of the two enzymes (100, 200, 300, 400 U/L) were used to determine the effect of different concentrations of porphyrins on enzyme activity. The concentration of the enzyme was 200 U/L, and the concentration of the substrate Gal-G2-α-CNP/pNPG solution (2.5, 5, 7.5, 10 mmol/L) was used to determine the effect of different concentrations of porphyrins on the enzyme-catalyzed substrate activity.
(§2) Upon identifying the type of inhibition, the kinetic equations vary for different inhibition types.
(§3) In the formula, v, Vmax, Km, Ki, and Kis represent the reaction rate, maximum reaction rate, Michaelis constant, and free enzyme inhibition constant, respectively, and the binding enzyme inhibition constant. [S] denotes the substrate concentration. [I] denotes the inhibitor concentration.

α-amylase [3] = biological target: T1, α-amylase; experiment: Mode of α-AMY inhibition (reversibility, Lineweaver–Burk kinetics); type: biochemical
Excerpt: as §1, §2, §3

[4] = enzyme 100–400 U/L, substrate 5 mmol/L
[5] = enzyme–substrate complex inhibition constant
[6] = free enzyme inhibition constant

α-glucosidase, sequence (P53341 whole entry): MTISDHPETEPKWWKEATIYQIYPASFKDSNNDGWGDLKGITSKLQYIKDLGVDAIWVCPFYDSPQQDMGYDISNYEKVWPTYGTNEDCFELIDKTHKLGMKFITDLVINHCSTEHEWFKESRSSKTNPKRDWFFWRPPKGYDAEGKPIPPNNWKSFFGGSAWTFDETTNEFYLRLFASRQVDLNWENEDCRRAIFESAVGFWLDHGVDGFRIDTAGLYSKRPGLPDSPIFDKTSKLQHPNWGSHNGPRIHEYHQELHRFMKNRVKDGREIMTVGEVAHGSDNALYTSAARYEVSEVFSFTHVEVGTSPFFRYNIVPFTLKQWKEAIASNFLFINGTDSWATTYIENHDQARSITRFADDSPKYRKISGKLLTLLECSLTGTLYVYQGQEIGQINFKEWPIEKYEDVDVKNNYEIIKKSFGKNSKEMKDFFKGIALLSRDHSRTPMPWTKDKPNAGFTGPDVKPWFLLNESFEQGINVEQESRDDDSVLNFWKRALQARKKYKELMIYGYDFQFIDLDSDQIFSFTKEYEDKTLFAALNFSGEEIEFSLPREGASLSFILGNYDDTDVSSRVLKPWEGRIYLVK

Substance: iron (III) meso-tetra (4-carboxyphenyl) porphyrin chloride [Fe–TCPP]
- Random Coil (α-amylase [1]): 22.59 ± 0.03%
- α-Helix (α-amylase [1]): 21.77 ± 0.07%
- β-Antiparallel (α-amylase [1]): 8.76 ± 0.02%
- β-Sheet (α-amylase [1]): 12.86 ± 0.04%
- β-Turn (α-amylase [1]): 34.02 ± 0.08%
- quenching mechanism of α-amylase fluorescence (α-amylase [2]; Stern–Volmer plots, 298–310 K): mixed quenching
- Ka (binding constant) (α-amylase [2]; T 298 K): 944.30 ± 0.18 ×10^5 L/mol
- Kq (α-amylase [2]; T 298 K): 4.32 ± 0.06 ×10^12 L/mol/s
- Ksv (α-amylase [2]; T 298 K): 4.32 ± 0.06 ×10^4 L/mol
- n (number of binding sites) (α-amylase [2]; T 298 K): 1.65
- ΔG^0 (α-amylase [2]; T 298 K): -10.87 ± 0.017 kcal/mol
- Ka (binding constant) (α-amylase [2]; T 304 K): 40.38 ± 0.09 ×10^5 L/mol
- Kq (α-amylase [2]; T 304 K): 3.36 ± 0.06 ×10^12 L/mol/s
- Ksv (α-amylase [2]; T 304 K): 3.36 ± 0.06 ×10^4 L/mol
- n (number of binding sites) (α-amylase [2]; T 304 K): 1.38
- ΔG^0 (α-amylase [2]; T 304 K): -9.19 ± 0.014 kcal/mol
- Ka (binding constant) (α-amylase [2]; T 310 K): 2.13 ± 0.05 ×10^5 L/mol
- Kq (α-amylase [2]; T 310 K): 3.29 ± 0.08 ×10^12 L/mol/s
- Ksv (α-amylase [2]; T 310 K): 3.29 ± 0.08 ×10^4 L/mol
- n (number of binding sites) (α-amylase [2]; T 310 K): 1.05
- ΔG^0 (α-amylase [2]; T 310 K): -7.557 ± 0.019 kcal/mol
- ΔH^0 (α-amylase [2]; Van’t Hoff, 298–310 K): -93.248 ± 0.0406 kcal/mol
- ΔS^0 (α-amylase [2]; Van’t Hoff, 298–310 K): −1156.68 ± 0.13 J/mol/k
- Km (α-glucosidase): 2.6958 ± 0.0821 µg/mL and 3.3979 ± 0.1076 µg/mL and 3.9231 ± 0.1098 µg/mL and 4.1566 ± 0.0981 µg/mL and 4.3847 ± 0.0694 µg/mL
- Vmax (α-glucosidase; C 16 μg/mL): 0.0771 ± 0.0023 ΔOD/min
- Vmax (α-glucosidase; C 32 μg/mL): 0.0601 ± 0.0019 ΔOD/min
- Vmax (α-glucosidase; C 48 μg/mL): 0.0502 ± 0.0014 ΔOD/min
- Vmax (α-glucosidase; C 64 μg/mL): 0.0416 ± 0.0010 ΔOD/min
- Vmax (α-glucosidase; C 80 μg/mL): 0.0361 ± 0.0006 ΔOD/min
- type of inhibition of α-glucosidase (α-glucosidase; Lineweaver–Burk plots): mixed type
- reversibility of inhibition of α-glucosidase (α-glucosidase; [4]): reversible inhibition
- Kis (α-glucosidase; [5]): 40.4085 ± 0.1084 µg/mL
- Ki (α-glucosidase; [6]): 9.8917 ± 0.0514 µg/mL
- Km (α-amylase [3]; C 25 μg/mL): 2.7329 ± 0.0882 µg/mL
- Vmax (α-amylase [3]; C 25 μg/mL): 0.1143 ± 0.0037 ΔOD/min
- Km (α-amylase [3]; C 50 μg/mL): 2.9384 ± 0.0447 µg/mL
- Vmax (α-amylase [3]; C 50 μg/mL): 0.0972 ± 0.0015 ΔOD/min
- Km (α-amylase [3]; C 100 μg/mL): 3.2079 ± 0.1016 µg/mL
- Vmax (α-amylase [3]; C 100 μg/mL): 0.0748 ± 0.0024 ΔOD/min
- Km (α-amylase [3]; C 150 μg/mL): 3.3360 ± 0.0508 µg/mL
- Vmax (α-amylase [3]; C 150 μg/mL): 0.0601 ± 0.0009 ΔOD/min
- Km (α-amylase [3]; C 200 μg/mL): 3.4920 ± 0.0491 µg/mL
- Vmax (α-amylase [3]; C 200 μg/mL): 0.0512 ± 0.0007 ΔOD/min
- type of inhibition of α-amylase (α-amylase [3]; Lineweaver–Burk plots): mixed type
- reversibility of inhibition of α-amylase (α-amylase [3]; [4]): reversible inhibition
- Kis (α-amylase [3]; [5]): 117.2152 ± 0.1432 µg/mL
- Ki (α-amylase [3]; [6]): 69.5865 ± 0.1284 µg/mL
